In patent publication US8697637B2, “Antimicrobial peptides of the cecropin family and therapeutic uses thereof” (Institut de Recherche pour le Developpement (IRD), priority 2010, dated 2014):
Converted amounts (≈) assume the structure as drawn. Where a SMILES comes first, the peptide text is derived from it.

Tests used:
Assay type in all cases: cell-based
[1] = system: Escherichia coli (Gram negative); conditions: E. coli, LB medium, 37° C., 24 hours, complete inhibition of growth
Method: (§1) The bacteria Escherichia coli (Gram negative) and Micrococcus luteus (Gram positive) are cultivated in an LB (Luria-Bertani) culture medium with and without the peptides GK36 and MK61 to be tested. The bacterial growth is checked after incubation for one night at 37° C. by measuring the change in the absorbance value at 600 nanometres (A600) with the aid of a microplate spectrophotometer. The peptides MK61 and GK36 are incubated for 24 hours with the Gram negative and Gram positive bacteria. The minimum inhibitory concentration (MIC) of the synthetic peptides GK36 and MK61 represents the lowest peptide concentration that is sufficient to inhibit bacterial growth completely.
(§2) The results obtained are shown in FIG. 1 for the bacterium Escherichia coli (Gram negative) and in FIG. 2 for the bacterium Micrococcus luteus (Gram positive).

[2] = system: Micrococcus luteus (Gram positive); test: Antibacterial test, bacterial growth in LB medium (A600), MIC; conditions: 37° C., 24 hours, complete inhibition of growth
Method: as §1, §2

[3] = system: CHIKV-147-2 GFP virus; test: Inhibition of the infection of HEK-293T cells by chikungunya virus (GFP, flow cytometry); conditions: MOI 1, peptide at 10, 50 and 80 μg/ml, 48 hours
Method: The cells, which come from the human cell line HEK-293T (human embryonic kidney 293), are incubated for 2 hours at 37° C. in the presence of CHIKV-147-2 GFP virus (they are infected at an “MOI” of 1) with and without the peptides GK36 and MK61 to be tested, which are each prepared at concentrations of 10 μg/ml, 50 μg/ml and 80 μg/ml. The supernatant is then withdrawn and the cells are or are not brought into contact with peptides for 48 hours. The percentage of cells infected corresponds to the percentage of GFP (“green fluorescent protein”) cells visualised by flow cytometry (10,000 cells were counted per condition).

[4] = system: dengue virus serotype 2 "DENV-2"; test: Inhibition of the infection of dendritic cells by the dengue virus (real-time PCR); conditions: peptide at 2.5 μg/ml, DENV-2 MOI 0.4, 48 hours
Method: The dendritic cells are incubated for 3 hours at 37° C. in the presence of the dengue virus (they are infected at an “MOI” (“multiplicity of infection”) of 0.4) with and without the peptides MK61 and GK36 to be tested, which are prepared at concentrations of 2.5 μg/ml and 12 μg/ml for MK61 and 2.5 μg/ml for GK36. The supernatant is then withdrawn and the cells are or are not brought into contact with peptide for 48 hours.
Real-time PCR analyses are then carried out. The cell viability is evaluated by flow cytometry, and no cell toxicity is observed.

[5] = system: parasite; test: Antiparasitic activity (general statement); conditions: general statement in the description
[6] = system: DENV-1; test: Inhibition of the infection of C6/36 cells by the dengue virus (RT-PCR); conditions: C6/36 cells of Aedes albopictus, 5 or 10 μg/ml, 12 or 24 hours, RT-PCR bands
Method: (§3) The C6/36 cells of Aedes albopictus mosquitoes are incubated for one hour at 4° C. with the various dengue viruses ((serotype 1) “DENV-1” or (serotype 2) “DENV-2” or (serotype 3) “DENV-3” or (serotype 4) “DENV-4”) (with “PFUs” (“plaque forming units”) of 1). The cells are then washed three times and incubated for 12 hours or 24 hours at 28° C. in the presence or absence of the peptides GK36 and MK61 to be tested, which are each prepared at concentrations of 5 μg/ml or 10 μg/ml.
(§4) RT-PCR analyses are then carried out on the cell pellets in order to detect the presence of the dengue virus.

[7] = system: DENV-2; test: as above; conditions: C6/36 cells of Aedes albopictus, 5 or 10 μg/ml, 12 or 24 hours, RT-PCR bands
Method: as §3, §4

[8] = system: DENV-4; test: as above; conditions: C6/36 cells of Aedes albopictus, 5 or 10 μg/ml, 12 or 24 hours, RT-PCR bands
Method: as §3, §4

[9] = system: DENV-3; test: as above; conditions: C6/36 cells of Aedes albopictus, 5 or 10 μg/ml, 12 or 24 hours, RT-PCR bands
Method: as §3, §4

CC[C@H](C)[C@H](NC(=O)CNC(=O)[C@@H](NC(=O)[C@@H](NC(=O)[C@@H](NC(=O)[C@@H]1CCCN1C(=O)[C@H](CC(C)C)NC(=O)[C@H](C)NC(=O)[C@H](CCCCN)NC(=O)[C@H](CCC(=O)O)NC(=O)[C@H](CO)NC(=O)[C@H](C)NC(=O)[C@H](CCCCN)NC(=O)[C@H](Cc1ccccc1)NC(=O)[C@@H](NC(=O)[C@H](CCCNC(=N)N)NC(=O)[C@H](CCCCN)NC(=O)CNC(=O)[C@H](C)NC(=O)CNC(=O)[C@H](CCC(=O)O)NC(=O)[C@H](CC(C)C)NC(=O)[C@H](CCCCN)NC(=O)[C@H](CCCCN)NC(=O)CNC(=O)[C@H](CC(C)C)NC(=O)[C@H](CCCCN)NC(=O)[C@H](CCCCN)NC(=O)[C@H](CC(C)C)NC(=O)CNC(=O)CN)C(C)C)C(C)C)C(C)C)C(C)C)C(=O)N[C@@H](CCCCN)C(=O)N[C@@H](C)C(=O)N[C@H](C(=O)NCC(=O)N[C@@H](CCCCN)C(=O)O)[C@@H](C)CC [GK36] (H-GGLKKLGKKLEGAGKRVFKASEKALPVVVGIKAIGK-OH; N-terminus and C-terminus assumed)
minimum inhibitory concentration (MIC) [1]: 0.6 µM (≈ 2.21 µg/mL) | minimum inhibitory concentration (MIC) [2]: 10 µM (≈ 36.8 µg/mL) | inhibition of the infection of HEK-293T cells [3]: inhibits the infection of the HEK-293T cells | inhibition of the infection of the dendritic cells [4]: 35% | antiparasitic activity [5]: does not exhibit antiparasitic activity | inhibition of the infection of C6/36 cells by dengue-1 virus [6]: inhibit the infection | inhibition of the infection of C6/36 cells by dengue-2 virus [7]: inhibit the infection | inhibition of the infection of C6/36 cells by dengue-4 virus [8]: inhibit the infection | inhibition of the infection of C6/36 cells by dengue-3 virus [9]: inhibit the infection
